{"source": "patent EP1096933B1", "about": "“USE OF AN INHIBITOR OF CYTOCHROME P450 OPTIONALLY COMBINED WITH AN ANTIFUNGAL AGENT FOR TREATING MYCOSES” (priority 1998, dated 2000)", "tested_on": "Microsporum persicolor", "assay": "growth of strains streaked on Sabouraud agar containing the products", "format": "cell-based", "conditions": "Nannizzia persicolor, Micro.Persicolor; for activity at 10 µg/mL: 10µg/ml each product, read-out: % DE CROISSANCE; for inhibition at 2 µg/mL / inhibition at 10 µg/mL / inhibition at 20 µg/mL / inhibition at 50 µg/mL: read-out: inhibition de la croissance", "method": "Ces molécules ont été incorporées dans un milieu gélosé dit de Sabouraud (peptone 10g/l, glucose 10 g/l, gomme agar 15 g/l).\nDes souches de diverses espèces de champignons ont été ensemencées par stries par la méthode de Stires.\nLe pourcentage de croissance a été mesuré au cours du temps, pour des périodes allant jusqu'à 21 jours, pour certaines des souches testées.\nLes quantités de pipéronyl butoxyde, et de cyclopyroxolamine utilisées sont identiques et sont de 10 ou 20 µg/ml dans le cas de l'association entre ces deux composés.\nDans le cas de l'association entre le pipéronyl butoxyde et l'éconazole, elles sont respectivement de 10 ou 20 µg/ml de pipéronyl butoxyde et de 1 µg/ml d'éconazole.\nDes souches appartenant aux espèces suivantes ont été testées: Microsporum canis, Trichophyton rubrum, Trichophyton interdigitale, Trichophyton mentagrophytes, Microsporum persicolor, Epidermophyton floccosum, Trichophyton violaceum et Trichophyton soudanense.\nL'activité du pipéronyl butoxyde seul a été testée à diverses concentrations, comme indiqué dans le tableau 1 sur le milieu de Sabouraud, dépourvu de tout autre fongicide.", "note": "Like-named read-outs stand apart in the source and are kept apart here.", "data": [{"compound": "CCCCOCCOCCOCc1cc2c(cc1CCC)OCO2", "note": "[Piperonyl., pipéronyl butoxyde]", "values": [{"measurement": "activity at 10 µg/mL", "setting": "0 h, J0", "value": 0, "unit": "%"}, {"measurement": "activity at 10 µg/mL", "setting": "96 h, J4", "value": 0, "unit": "%"}, {"measurement": "activity at 10 µg/mL", "setting": "144 h, J6", "value": 20, "unit": "%"}, {"measurement": "activity at 10 µg/mL", "setting": "240 h, J10", "value": 40, "unit": "%"}, {"measurement": "activity at 10 µg/mL", "setting": "336 h, J14", "value": 75, "unit": "%"}, {"measurement": "inhibition at 2 µg/mL", "setting": "J+4", "value": 20, "unit": "%"}, {"measurement": "inhibition at 10 µg/mL", "setting": "J+4", "value": 0, "unit": "%"}, {"measurement": "inhibition at 20 µg/mL", "setting": "J+4", "value": 0, "unit": "%"}, {"measurement": "inhibition at 50 µg/mL", "setting": "J+4", "value": 0, "unit": "%"}, {"measurement": "inhibition at 2 µg/mL", "setting": "J+10", "value": 85, "unit": "%"}, {"measurement": "inhibition at 10 µg/mL", "setting": "J+10", "value": 40, "unit": "%"}, {"measurement": "inhibition at 20 µg/mL", "setting": "J+10", "value": 20, "unit": "%"}, {"measurement": "inhibition at 50 µg/mL", "setting": "J+10", "value": 0, "unit": "%"}, {"measurement": "inhibition at 2 µg/mL", "setting": "J+14", "value": 100, "unit": "%"}, {"measurement": "inhibition at 10 µg/mL", "setting": "J+14", "value": 75, "unit": "%"}, {"measurement": "inhibition at 20 µg/mL", "setting": "J+14", "value": 25, "unit": "%"}, {"measurement": "inhibition at 50 µg/mL", "setting": "J+14", "value": 0, "unit": "%"}]}]}
